Assay results: patent US20210040118A1, “IMMUNOMODULATORS, COMPOSITIONS AND METHODS THEREOF” (BETTA PHARMACEUTICALS CO., LTD, priority 2018, published 2021)

Molecular target: T1, PD-1/PD-L1 (Homo sapiens, UniProt Q9NZQ7)
T1 construct: Recombinant human PD-L1 protein (19-238) with a His-tag at the C-terminus; purchased AcroBiosystems PD1-H5229 (PD-L1); PD1-H5257 (PD-1)
Assay: PD-1/PD-L1 homogenous time-resolved fluorescence (HTRF) binding assay
Settings: recombinant human PD-L1 (19-238) His-tag / human PD-1 (25-167) Fc tag, class symbols
Outline: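 Inhibitors were preincubated 40 min at 25°C with 10 nM His-tagged human PD-L1 (19-238) and 3 nM Fc-tagged human PD-1 (25-167) in PBS pH 7.4 containing Tween-20, BSA and 1% DMSO. After 60 min with europium anti-human IgG and anti-His-APC, 665/620 nm signal ratio gave IC50 via percent-control fit.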

T1 sequence (Q9NZQ7 19-238): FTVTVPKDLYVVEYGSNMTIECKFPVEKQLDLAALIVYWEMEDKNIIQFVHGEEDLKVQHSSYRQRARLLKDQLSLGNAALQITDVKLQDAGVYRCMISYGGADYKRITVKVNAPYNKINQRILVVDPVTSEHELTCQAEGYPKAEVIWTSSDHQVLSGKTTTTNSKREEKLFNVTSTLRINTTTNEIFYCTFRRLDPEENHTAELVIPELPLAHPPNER

SMILES	IC50
Cc1c(-c2cccc(N(C)Cc3nc4ccc(N)cc4s3)c2C)cccc1N(C)Cc1nc2c(s1)CNCC2 [Example 22, N3-((6-aminobenzo[d]thiazol-2-yl)methyl)-N3,N3′,2,2′-tetramethyl-N3′-((4,5,6,7-tetrahydrothiazolo[5,4-c]pyridin-2-yl)methyl)-[1,1′-biphenyl]-3,3′-diamine]	> 200 nM
Cc1c(NC(=O)c2nc3c(s2)CN(C(C)C(=O)O)CC3)cccc1-c1cccc(NC(=O)c2nc3c(s2)CN(C(C)C(=O)O)CC3)c1C (stereo not drawn) [Example 79, 2,2′-((((2,2′-dimethyl-[1,1′-biphenyl]-3,3′-diyl)bis(azanediyl))bis(carbonyl))bis(6,7-dihydrothiazolo[5,4-c]pyridine-2,5(4H)-diyl))dipropionic acid]	< 25 nM
COP(=O)(CN1CCc2nc(C(=O)N3CCc4c(-c5cccc6c5CCN6C(=O)c5nc6c(s5)CN(CP(=O)(OC)OC)CC6)cccc43)sc2C1)OC [Example 123, dimethyl ((2-(1′-(5-((dimethoxyphosphoryl)methyl)-4,5,6,7-tetrahydrothiazolo[5,4-c]pyridine-2-carbonyl)-[4,4′-biindoline]-1-carbonyl)-6,7-dihydrothiazolo[5,4-c]pyridin-5(4H)-yl)methyl)phosphonate]	< 25 nM
NC(=O)CN1C2CCC1c1sc(C(=O)N3CCc4c(-c5cccc6c5CCN6C(=O)c5nc6c(s5)C5CCC(C6)N5CC(=O)O)cccc43)nc1C2 (stereo not drawn) [Example 111, 2-(2-(1′-(9-(2-amino-2-oxoethyl)-5,6,7,8-tetrahydro-4H-5,8-epiminocyclohepta[d]thiazole-2-carbonyl)-[4,4′-biindoline]-1-carbonyl)-5,6,7,8-tetrahydro-4H-5,8-epiminocyclohepta[d]thiazol-9-yl)acetic acid]	< 25 nM
Cc1nc(C(=O)Nc2cccc(-c3cccc(NC(=O)c4nc(C)c(CN5CCCC5)s4)c3C)c2C)sc1CN1CCCC1 [Example 28, N,N′-(2,2′-dimethyl-[1,1′-biphenyl]-3,3′-diyl)bis(4-methyl-5-(pyrrolidin-1-ylmethyl)thiazole-2-carboxamide)]	< 25 nM
COC(=O)NCC1(N2CCc3nc(C(=O)N4CCc5c(-c6cccc7c6CCN7C(=O)c6nc7c(s6)CN(C6(CNC(=O)OC)CC6)CC7)cccc54)sc3C2)CC1 [Example 131, dimethyl (((([4,4′-biindoline]-1,1′-dicarbonyl)bis(6,7-dihydrothiazolo[5,4-c]pyridine-2,5(4H)-diyl))bis(cyclopropane-1,1-diyl))bis(methylene))dicarbamate]	25 to 100 nM
